Data as given in US10538561B2, “Peptide for treating inflammatory diseases” (priority 2015, dated 2020).
Where a name gives a salt, the structure may show the parent alone. Marks after values point to notes of the source that are not given here.

What was measured:
[1] = system: VEGF; assay: VEGF inhibition in keratinocytes (ELISA); type: cell-based, Human; details: HaCaT, 24 h
Protocol: Cell lines: Human Keratinocytes (HaCaT); test item: IS181; treatment regimen: single addition—24 hours; concentration range: 0.1 μg/ml-100 μg/ml. […] Cells were serum-starved for another 24 hours (0% FBS). Cells were treated with IS181 for 24 hours. Supernatants were collected and stored at −20° C. till analysed. Levels of VEGF were analysed in supernatants by ELISA. Percent inhibition of VEGF secretion was calculated with reference to untreated levels. Positive control: curcumin; retinoic acid (at non-cytotoxic concentrations).

[2] = system: HaCaT (Human keratinocyte) cell line; assay: Mitochondrial membrane potential by JC-1 assay; type: cell-based
Protocol: (§1) For testing Apoptosis the Human Keratinocytes (HaCaT) cell line has been employed. The growth conditions are DMEM containing 1% FBS. […] Test concentration range is IS181 is tested at the highest (Qualitative analysis) effective concentrations selected on the basis of Quantitative JC-1 assay. The method of estimation is Mitochondrial membrane depolarization by JC-1 assay (Early apoptosis), LDH enzyme release (Necrosis). Treatment regimen & time points are JC-1 assay—Single addition, 20 h; LDH assay—Single addition, 24 h; Positive control: Triton-X-100, Doxorubicin-hydrochloride
Quantitative effect on Δψm (Red fluorescence/Green fluorescence) in HaCaT cells post 20 hours of treatment. […] Evaluation (Qualitative and quantitative) of differential JC-1 staining in treated cells after 20 h on incubation with the test peptides.

[3] = system: Human melanoma (SK-MEL-28); assay: Cell viability (MTT assay) in SK-MEL-28; type: cell-based; details: human
Protocol: (§2) Cell Lines/Cells: Human Keratinocytes (HaCaT); Human melanoma (SK-MEL-28); Human PBMCs. Test Item: IS181 Treatment regimen: Single addition—24 h, ^#Multiple additions (3)−72 h; Concentration range: 1 ng/ml-2 mg/ml (triplicate wells); Sera Condition: […] Method of estimation: MTT assay. […] Positive control: Triton-X-100, Doxorubicin Hydrochloride.

[4] = system: Human Keratinocytes (HaCaT); assay: Cell viability (MTT assay) in HaCaT; type: cell-based; details: human
Protocol: as §2

[5] = system: HaCaT (Human keratinocyte); assay: LDH enzyme release assay; type: cell-based
Protocol: as §1
End-point: Percentage increase in LDH activity in treated cells with respect to untreated.

[6] = system: TSLP; assay: LPS+PMA stimulated TSLP secretion in HaCaT; type: cell-based, Human; details: HaCaT + LPS + PMA
Protocol: (§3) Effect on pro-inflammatory cytokines against TNF-α/LPS+PMA stimulation: TNF-α; IFN-γ; TARC; TSLP; IL-6; IL-8: Cell lines: Human keratinocytes (HaCaT); test item (TI); IS181; experimental steps: pre-treatment of cells with TI for 2 hours; stimulation with TNF-α: 20 ng/ml; stimulation with LPS+PMA-10 μg/ml LPS+40 ng/ml PMA; supernatant collection for cytokine analysis after 24 hours; concentration range: 0.1 μg/ml-100 μg/ml (duplicate wells); cytokines: TNF-α; IFN-γ; TARC; TSLP; IL-6; IL-8. Method of estimating cytokines: ELISA; positive control: dexamethasone.
(§4) Cell line: HaCaT (Human Keratinocytes); TI Treatment regimen: Pretreatment for 2 h; TI Concentration range: 0.1 μg/ml-100 μg/ml (duplicate wells); TNF-α stimulation: 20 ng/ml; LPS+PMA stimulation: 10 μg/ml LPS+40 ng/ml PMA; Time point for supernatants collection: 24 h; Method of estimation: ELISA; Positive control: Dexamethasone

[7] = system: IFN-γ; assay: TNF-α stimulated IFN-γ secretion in HaCaT; type: cell-based, Human; details: HaCaT + TNF-α
Protocol: as §3, §4

[8] = system: IL-6; assay: LPS+PMA stimulated IL-6 secretion in HaCaT; type: cell-based, Human
Protocol: as §3, §4

[9] = system: IL-1-β; assay: LPS stimulated IL-1-β secretion in RAW264.7; type: cell-based, Mouse; details: RAW264.7 + LPS
Protocol: (§5) Effect on pro-inflammatory cytokines against LPS stimulation: TNF-α; IL-6; IL-1-β: Cell lines: Murine macrophage cell line (RAW264.7); test item: IS181; experimental steps: pretreatment of cells with TI for 2 hours; stimulation with LPS (100 ng/ml) for 24 hours; supernatant collection for cytokine analysis; concentration range: o.1 μg/ml-500 μg/ml (duplicate wells); Cytokines: TNF-α; IL-6; IL-1-β; Method of estimating cytokines: ELISA; positive control: dexamethasone.
(§6) Cell line: RAW264.7 (Mouse macrophages); TI treatment regimen: Pretreatment for 2 h; TI Concentration range: 0.1 μg/ml-500 μg/ml (duplicate wells); LPS stimulation: 100 ng/ml; Time point for supernatants collection: 24 h; Method of estimation: ELISA; Positive control: Dexamethasone

[10] = system: IL-8; assay: LPS+PMA stimulated IL-8 secretion in HaCaT; type: cell-based, Human; details: HaCaT + LPS + PMA
Protocol: as §3, §4

[11] = system: TNF-α; assay: TNF-α level in TNF-α stimulated HaCaT; type: cell-based, Human
Protocol: as §3, §4

[12] = system: TNF-α; assay: LPS stimulated TNF-α secretion in RAW264.7; type: cell-based, Mouse; details: RAW264.7 + LPS
Protocol: as §5, §6

[13] = system: IL-6; assay: LPS stimulated IL-6 secretion in RAW264.7; type: cell-based, Mouse; details: RAW264.7 + LPS
Protocol: as §5, §6

[14] = system: TARC; assay: TNF-α stimulated TARC secretion in HaCaT; type: cell-based, Human; details: HaCaT + TNF-α
Protocol: as §3, §4

Question: For `CC1=C(/C=C/C(C)=C/C=C/C(C)=C/C(=O)O)C(C)(C)CCC1` [RA, retinoic acid, reference compound], which “Conc. of VEGF (pg/ml)” value ([1]; RA 1 μM) is on record?
Answer: 2775.1* pg/ml

Question: And the “Conc. of VEGF” value ([1]; RA 10 μM)?
Answer: 2982.4 pg/mL

Question: What about the inhibition at 1 µM ([1]; Homo sapiens, RA 1 μM, read-out: % Inhibition of VEGF wrt untreated (basal) levels) of the same molecule?
Answer: 22.8%

Question: What about the inhibition at 10 µM ([1]; Homo sapiens, RA 10 μM, read-out: % Inhibition of VEGF wrt untreated (basal) levels) of the same molecule?
Answer: 17%

Question: With `COc1cccc2c1C(=O)c1c(O)c3c(c(O)c1C2=O)C[C@@](O)(C(=O)CO)C[C@@H]3O[C@H]1C[C@H](N)[C@H](O)[C@H](C)O1` [Doxorubicin, Doxorubicin Hydrochloride, reference compound] as the molecule, how does the “Green fluorescence intensity (RFU)” value ([2]; 0.1 μM) read?
Answer: 11.5 ± 0.71 RFU

Question: What about the “Red fluorescence intensity (RFU)” value ([2]; 0.1 μM) of the same molecule?
Answer: ^#106.17 ± 15.32 ^ RFU

Question: And the “Red fluorescence intensity/Green fluorescence intensity” value ([2]; 0.1 μM)?
Answer: 9.23

Question: And the “Green fluorescence intensity (RFU)” value ([2]; 1 μM)?
Answer: 11.5 ± 0.71 RFU

Question: What about the “Red fluorescence intensity (RFU)” value ([2]; 1 μM) of the same molecule?
Answer: 93.25 ± 22.98 RFU

Question: What about the “Red fluorescence intensity/Green fluorescence intensity” value ([2]; 1 μM) of the same molecule?
Answer: 8.11

Question: What about the “Green fluorescence intensity (RFU)” value ([2]; 10 μM) of the same molecule?
Answer: 9.83 ± 4.48 RFU

Question: And the “Red fluorescence intensity (RFU)” value ([2]; 10 μM)?
Answer: 49.83 ± 1.65 RFU

Question: What about the “Red fluorescence intensity/Green fluorescence intensity” value ([2]; 10 μM) of the same molecule?
Answer: 5.07

Question: What about the cytotoxicity [3] of the same molecule?
Answer: up to 40%

Question: And the cytotoxicity ([4]; 24 h)?
Answer: up to 48%

Question: And the cytotoxicity ([4]; 72 h)?
Answer: > 88%

Question: And the “% Increase with respect to untreated (LDH)” value (from here on “% Increase”) ([5]; 0.1 μM)?
Answer: −4.78%

Question: What about the “LDH Activity (mU/ml)” value ([5]; 0.1 μM) of the same molecule?
Answer: 60.23 mU/ml

Question: What about the “% Increase” value ([5]; 1 μM) of the same molecule?
Answer: −16.43%

Question: And the “LDH Activity (mU/ml)” value ([5]; 1 μM)?
Answer: 52.87 mU/ml

Question: What about the “% Increase” value ([5]; 10 μM) of the same molecule?
Answer: ***125.92%

Question: What about the “LDH Activity (mU/ml)” value ([5]; 10 μM) of the same molecule?
Answer: 142.92 mU/ml

Question: What does the source list for `C[C@@H]1C[C@H]2[C@@H]3CCC4=CC(=O)C=C[C@]4(C)[C@@]3(F)[C@@H](O)C[C@]2(C)[C@@]1(O)C(=O)CO` [Dexamethasone, reference compound]?
Answer: TSLP % decrease with respect to LPS + PMA ([6]; 1 μM): 46.4%; TSLP Conc (pg/ml) ([6]; 1 μM): 66.6** pg/ml; TSLP % decrease with respect to LPS + PMA ([6]; 10 μM): 41.9%; TSLP Conc (pg/ml) ([6]; 10 μM): 72.1** pg/ml; TSLP % decrease with respect to LPS + PMA ([6]; 25 μM): 44.7%; TSLP Conc (pg/ml) ([6]; 25 μM): 68.7** pg/ml; IFN-γ % decrease with respect to TNF-α ([7]; 1 μM): 34.5%; IFN-γ Conc (pg/ml) ([7]; 1 μM): 31.2*** pg/ml; IFN-γ % decrease with respect to TNF-α ([7]; 10 μM): 25.4%; IFN-γ Conc (pg/ml) ([7]; 10 μM): 35.5** pg/ml; IFN-γ % decrease with respect to TNF-α ([7]; 25 μM): 31.2%; IFN-γ Conc (pg/ml) ([7]; 25 μM): 32.8** pg/ml; IL-6 % decrease with respect to LPS + PMA ([8]; 1 μM): 100.0%; IL-6 Conc (pg/ml) ([8]; 1 μM): 0.0*** pg/ml; IL-6 % decrease with respect to LPS + PMA ([8]; 10 μM): 94.8%; IL-6 Conc (pg/ml) ([8]; 10 μM): 0.8*** pg/ml; IL-6 % decrease with respect to LPS + PMA ([8]; 25 μM): 84.2%; IL-6 Conc (pg/ml) ([8]; 25 μM): 2.4*** pg/ml; IL-1-β % decrease with respect to LPS ([9]; 0.5 μg /ml): 53.6%; IL-1-β Conc (pg/ml) ([9]; 0.5 μg /ml): 9.6* pg/ml; IL-1-β % decrease with respect to LPS ([9]; 1 μg /ml): 44.6%; IL-1-β Conc (pg/ml) ([9]; 1 μg /ml): 11.4* pg/ml; IL-1-β % decrease with respect to LPS ([9]; 10 μg/ml): 39.0%; IL-1-β Conc (pg/ml) ([9]; 10 μg/ml): 12.6* pg/ml; IL-8 % decrease with respect to LPS + PMA ([10]; 1 μM): 65.1%; IL-8 Conc (pg/ml) ([10]; 1 μM): 136.9*** pg/ml; IL-8 % decrease with respect to LPS + PMA ([10]; 10 μM): 72.6%; IL-8 Conc (pg/ml) ([10]; 10 μM): 107.4*** pg/ml; IL-8 % decrease with respect to LPS + PMA ([10]; 25 μM): 67.9%; IL-8 Conc (pg/ml) ([10]; 25 μM): 125.7*** pg/ml; TNF-α % decrease with respect to TNF-α ([11]; 1 μM): 17.6%; TNF-α Conc ([11]; 1 μM): 17423.9 pg/mL; TNF-α % decrease with respect to TNF-α ([11]; 10 μM): 31.2%; TNF-α Conc ([11]; 10 μM): 14536.0 pg/mL; TNF-α % decrease with respect to TNF-α ([11]; 25 μM): 4.7%; TNF-α Conc ([11]; 25 μM): 20138.0 pg/mL; TNF-α % decrease with respect to LPS ([12]; 0.5 μg /ml): 54.1%; TNF-α Conc (pg/ml) ([12]; 0.5 μg /ml): 451.7*** pg/ml; TNF-α % decrease with respect to LPS ([12]; 1 μg /ml): 70.4%; TNF-α Conc (pg/ml) ([12]; 1 μg /ml): 291.8*** pg/ml; TNF-α % decrease with respect to LPS ([12]; 10 μg/ml): 71.2%; TNF-α Conc (pg/ml) ([12]; 10 μg/ml): 283.1*** pg/ml; IL-6 % decrease with respect to LPS ([13]; 0.5 μg /ml): 45.9%; IL-6 Conc (pg/ml) ([13]; 0.5 μg /ml): 567.6** pg/ml; IL-6 % decrease with respect to LPS ([13]; 1 μg /ml): 61.3%; IL-6 Conc (pg/ml) ([13]; 1 μg /ml): 405.9*** pg/ml; IL-6 % decrease with respect to LPS ([13]; 10 μg/ml): 72.3%; IL-6 Conc (pg/ml) ([13]; 10 μg/ml): 291.2*** pg/ml; TARC % decrease with respect to TNF-α ([14]; 1 μM): 13.2%; TARC Conc ([14]; 1 μM): 52.5 pg/mL; TARC % decrease with respect to TNF-α ([14]; 10 μM): 13.5%; TARC Conc ([14]; 10 μM): 52.3 pg/mL; TARC % decrease with respect to TNF-α ([14]; 25 μM): 13.5%; TARC Conc ([14]; 25 μM): 52.3 pg/mL
